# No end group written: not given here.
# Tests used:
# [1] = test system: Pseudomonas aeruginosa (ATCC 27853); type: cell-based
# Summary of the method: (§1)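 Bacteria grown in 3% TSB at 37° C, diluted in 10 mM sodium phosphate/1% TSB to 1×10^5 CFU/ml in wells, exposed to peptides (0–300 μg/ml) for 1 h at 37° C. Mixtures plated on TS agar for 18 h at 37° C; MBC is the lowest concentration giving no colonies.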
# [2] = test system: Staphylococcus aureus (ATCC 29213); type: cell-based
# Summary of the method: as §1
# [3] = test system: Human vascular endothelial cells (HUVECs); test: Toxicity to human vascular endothelial cells (MTT); type: cell-based; details: 0 μg/ml to 300 μg/ml; FIG. 5
# Procedure: PBS was used as a control.
# The HUMEC medium was replaced with fresh medium, and KU-5878, melittin or magainin 2 were dispensed at various concentrations (0 μg/ml to 300 μg/ml). Then, each well was treated with 100 μl of MTT reagent and incubated at 37° C. for 2 hours. Then, the medium and the peptide were carefully removed so as not to separate the cells, and 100 μl of DMSO (dimethyl sulfoxide) was added to each well, and the absorbance at a wavelength of 570 nm was measured using a spectrophotometer. Relative cell viability was calculated as a percentage of the viability of untreated control cells.
# [4] = test system: Enterobacter aerogenes (ATCC 13048); test: Minimum bactericidal concentration (MBC) assay; type: cell-based
# Procedure: (§2) The minimum bactericidal concentration assay was the same as the method used in Example 1.
# (§3) Specifically, each type of bacteria was cultured in 3% (w/v) TSB (Tryptic Soy Broth) liquid medium at 37° C. and 200 rpm for 4 hours, and then further cultured under the same conditions for 3 hours to a concentration of 5×10^6 CFU/ml. Strain solutions were prepared by diluting each of the […] of 2×10^5 CFU/ml.
# (§4) Then, the KU-5878 peptide at varying concentrations (0 μg/ml to 300 μg/ml) was dispensed into each well of a 96-well microplate, and 100 μl (1×10^5 CFU/ml) of each of the prepared strain solutions was added thereto, mixed therewith, and allowed to react with the peptide in an incubator at 37° C. for 1 hour.
# (§5) In addition, 10 μl of each reaction solution of the peptide and the strain was plated on the TS agar plate at a constant size, and incubated in an incubator at 37° C. for 18 hours, and then colony formation on the plate was checked. The minimum bactericidal concentration was defined as the minimum concentration of the peptide at which no colony was formed, and the experimental results are shown in Table 2 below.
# [5] = test system: Klebsiella pneumoniae (ATCC 13883); test: Minimum bactericidal concentration (MBC) assay; type: cell-based
# Procedure: as §2, §3, §4, §5
# [6] = test system: Acinetobacter baumannii (ATCC 19606); test: Minimum bactericidal concentration (MBC) assay; type: cell-based
# Procedure: as §2, §3, §4, §5
# [7] = test system: Enterococcus faecalis (ATCC 19433); test: Minimum bactericidal concentration (MBC) assay; type: cell-based
# Procedure: as §2, §3, §4, §5
# [8] = test system: Escherichia coli (ATCC 25922); test: Minimum bactericidal concentration (MBC) assay; type: cell-based
# Procedure: as §2, §3, §4, §5
# [9] = test system: Bacillus subtilis (ATCC 6633); test: Minimum bactericidal concentration (MBC) assay; type: cell-based
# Procedure: as §2, §3, §4, §5
# [10] = test system: Enterococcus faecium (ATCC 19434); test: Minimum bactericidal concentration (MBC) assay; type: cell-based
# Procedure: as §2, §3, §4, §5
# [11] = test system: Streptomyces sindenensis (ATCC 12392); test: Minimum bactericidal concentration (MBC) assay; type: cell-based
# Procedure: as §2, §3, §4, §5
# [12] = test system: Pseudomonas aeruginosa and Staphylococcus aureus; test: MBC assay, antibacterial activity of Romo1-derived peptides compared in words; type: cell-based; details: Table 1 peptides
# Source text: Romo1 protein comprises two α-helices. The present inventors synthesized the α-helix 2 region having both hydrophilicity and hydrophobicity, and evaluated the antibacterial activity thereof using minimum bactericidal concentration (MBC) assay. The α-helix 2 region was named KU-5279 (the 52-79 amino acid region of Romo1 protein). Then, in order to identify peptides that are beneficial for human application and have excellent antibacterial activity, the present inventors synthesized several peptides comprising a sequence of contiguous amino acids starting at any amino acid selected from the 52-79 amino acid region of Romo1 protein, and comparatively evaluated the antibacterial activities of the peptides by minimum bactericidal concentration assay (See Table 1 below for information on each peptide). Evaluation of the antibacterial activity of each peptide by minimum bactericidal concentration assay was specifically performed as follows. First, each of Pseudomonas aeruginosa (ATCC 27853) and Staphylococcus aureus (ATCC 29213) was cultured in 3% (w/v) TSB (Tryptic Soy Broth) liquid medium at 37° C. and 200 rpm for 4 hours, and then further cultured under the same conditions for 3 hours to a concentration of 5×10^6 CFU/ml. […]
# [13] = test system: Staphylococcus aureus, Pseudomonas aeruginosa, Klebsiella pneumoniae and Acinetobacter baumannii; test: Survival rate of mice injected with gram-positive or gram-negative bacteria; type: in vivo, mice (C57BL/6); details: FIG. 3, bacteria only 0 to 20%
# Source text: Following Example 2-2, in order to evaluate the antibacterial activity of KU-5878 peptide in vivo, Staphylococcus aureus as gram-positive bacteria, Pseudomonas aeruginosa, Klebsiella pneumoniae and Acinetobacter baumannii as gram-negative bacteria, and multidrug-resistant Pseudomonas aeruginosa, methicillin-resistant Staphylococcus aureus, multidrug-resistant Klebsiella pneumoniae and multidrug-resistant Acinetobacter baumannii as multidrug-resistant bacteria were selected, and the following experiment was performed.
# The experimental method is as described in Example 2-2 above. For a positive group, each type of the bacteria was injected into mice, and after 24 hours, 30 mg/kg of imipenem, a carbapenem-based antibiotic, was injected intraperitoneally (IP), and then the same amount of imipenem was administered intraperitoneally a total of 4 times at 12-hour intervals. The survival rates of each control group and the experimental group were measured at 24-hour intervals.
sequence,measurement,setting,value
KTMMQSGGTFGTFMAIGMGIR [KU-5878],MBC (μg/ml) value against Pseudomonas aeruginosa,[1]; ATCC 27853,100 µg/mL
same,MBC value (μg/ml) against Pseudomonas aeruginosa,"[1]; ATCC 27853, 1 h",100 µg/mL
same,MBC Pseudomonas aeruginosa,"[1]; Tables 11-15, no unit printed",100 mg/L
same,MBC (μg/ml) value against Staphylococcus aureus,[2]; ATCC 29213,100 µg/mL
same,MBC value (μg/ml) against Staphylococcus aureus,"[2]; ATCC 29213, 1 h",100 µg/mL
same,MBC Staphylococcus aureus,"[2]; Tables 11-15, no unit printed",100 mg/L
same,"toxicity to the HUVECs (relative cell viability, MTT)",[3],very low toxicity
same,"MBC value (μg/ml), Enterobacter aerogenes",[4],90 µg/mL
same,"MBC value (μg/ml), Klebsiella pneumoniae",[5],100 µg/mL
same,"MBC value (μg/ml), Acinetobacter baumannii",[6],100 µg/mL
same,"MBC value (μg/ml), Enterococcus faecalis",[7],85 µg/mL
same,"MBC value (μg/ml), Escherichia coli",[8],85 µg/mL
same,"MBC value (μg/ml), Bacillus subtilis",[9],90 µg/mL
same,"MBC value (μg/ml), Enterococcus faecium",[10],85 µg/mL
same,"MBC value (μg/ml), Streptomyces sindenensis",[11],95 µg/mL
same,"antibacterial activity by MBC assay, in words",[12],three times better antibacterial activity than KU-5279
same,survival rate of the mice,[13],60%

# Reference: patent US12053506B2, “Romo1-derived antimicrobial peptides and variants thereof” (priority 2019, dated 2024)
